Laboratory results taken from ChEMBL document CHEMBL1201862, “PubChem BioAssay data set” (2004).
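48-hour exposure; five concentrations; linearly interpolated endpoints. At the GI50, growth is halved.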 Calls of active or inactive are those of the source. No stated cut-off is given here; in the data, active = GI50 up to about 1.1 µM and inactive = higher.

What was measured:
Assay in all cases: NCI tumour cell line growth inhibition, 48 h
SW-620 = test system: SW-620
RXF 393 = test system: RXF 393
DMS-273 = test system: DMS-273
OVCAR-8 = test system: OVCAR-8
HCT-15 = test system: HCT-15
LOX IMVI = test system: LOX IMVI
SK-OV-3 = test system: SK-OV-3
DLD-1 = test system: DLD-1
M19-MEL = test system: M19-MEL
IGROV-1 = test system: IGROV-1
M14 = test system: M14
SF-295 = test system: SF-295
OVCAR-4 = test system: OVCAR-4
SNB-75 = test system: SNB-75
Malme-3M = test system: Malme-3M
SK-MEL-28 = test system: SK-MEL-28
NCI-H23 = test system: NCI-H23
NCI-H460 = test system: NCI-H460
KM-20L2 = test system: KM-20L2
TK-10 = test system: TK-10
OVCAR-3 = test system: OVCAR-3
SNB-78 = test system: SNB-78
EKVX = test system: EKVX
UACC-62 = test system: UACC-62
HOP-18 = test system: HOP-18
CAKI-1 = test system: CAKI-1
A549 = test system: A549
U-251 = test system: U-251
HOP-62 = test system: HOP-62
LXFL 529 = test system: LXFL 529
K562 = test system: K562
MOLT-4 = test system: MOLT-4
UO-31 = test system: UO-31
SF-268 = test system: SF-268
HT-29 = test system: HT-29
DMS-114 = test system: DMS-114
786-0 = test system: 786-0
SN12C = test system: SN12C
XF498 = test system: XF498
HCC 2998 = test system: HCC 2998
HOP-92 = test system: HOP-92
ACHN = test system: ACHN
COLO 205 = test system: COLO 205
RPMI-8226 = test system: RPMI-8226
SK-MEL-5 = test system: SK-MEL-5
NCI-H522 = test system: NCI-H522
SR = test system: SR
SK-MEL-2 = test system: SK-MEL-2
A498 = test system: A498
UACC-257 = test system: UACC-257
HCT-116 = test system: HCT-116
NCI-H226 = test system: NCI-H226
KM12 = test system: KM12
HL-60 = test system: HL-60
SF-539 = test system: SF-539
CCRF-CEM = test system: CCRF-CEM
SNB-19 = test system: SNB-19
OVCAR-5 = test system: OVCAR-5

## O=C(/C=C/c1ccccc1F)c1ccc([N+](=O)[O-])cc1
SW-620
  GI50: 26.6 µM (inactive)
RXF 393
  GI50: 19.5 µM (inactive)
DMS-273
  GI50: 36.3 µM (inactive)
OVCAR-8
  GI50: 25.8 µM (inactive)
HCT-15
  GI50: 18.2 µM
LOX IMVI
  GI50: 4.35 µM (inactive)
SK-OV-3
  GI50: 56.5 µM (inactive)
DLD-1
  GI50: 16.6 µM (inactive)
M19-MEL
  GI50: 22.2 µM (inactive)
IGROV-1
  GI50: 24.3 µM (inactive)
M14
  GI50: 26.8 µM (inactive)
SF-295
  GI50: 27.9 µM (inactive)
OVCAR-4
  GI50: 25.3 µM (inactive)
SNB-75
  GI50: 4.58 µM (inactive)
Malme-3M
  GI50: 27.8 µM (inactive)
SK-MEL-28
  GI50: 18.4 µM (inactive)
NCI-H23
  GI50: 31.2 µM (inactive)
NCI-H460
  GI50: 30.8 µM (inactive)
KM-20L2
  GI50: 30.8 µM (inactive)
TK-10
  GI50: 23.9 µM (inactive)
OVCAR-3
  GI50: 24.6 µM (inactive)
SNB-78
  GI50: 37.2 µM (inactive)
EKVX
  GI50: 38.5 µM (inactive)
UACC-62
  GI50: 22.9 µM (inactive)
HOP-18
  GI50: 57.5 µM (inactive)
CAKI-1
  GI50: 15.5 µM (inactive)
A549
  GI50: 31.4 µM (inactive)
U-251
  GI50: 15.1 µM (inactive)
HOP-62
  GI50: 32.6 µM (inactive)
LXFL 529
  GI50: 16.6 µM (inactive)
K562
  GI50: 5.77 µM (inactive)
MOLT-4
  GI50: 2.07 µM (inactive)
UO-31
  GI50: 11.6 µM (inactive)
SF-268
  GI50: 27.2 µM (inactive)
HT-29
  GI50: 9.44 µM (inactive)
DMS-114
  GI50: 17.1 µM (inactive)
786-0
  GI50: 26.8 µM (inactive)
SN12C
  GI50: 37.8 µM (inactive)
XF498
  GI50: 19.6 µM (inactive)
HCC 2998
  GI50: 15.6 µM (inactive)
HOP-92
  GI50: 16.3 µM (inactive)
ACHN
  GI50: 31.2 µM (inactive)
COLO 205
  GI50: 35.2 µM (inactive)
RPMI-8226
  GI50: 2 µM (inactive)

## N=S(c1ccccc1)c1ccccc1[N+](=O)[O-] (stereo not drawn)
SK-MEL-5
  GI50: 15 µM (inactive)
SW-620
  GI50: 16.9 µM (inactive)
DMS-273
  GI50: 18.4 µM (inactive)
NCI-H522
  GI50: 4.71 µM (inactive)
OVCAR-8
  GI50: 23.8 µM (inactive)
HCT-15
  GI50: 16.6 µM
LOX IMVI
  GI50: 13.1 µM (inactive)
SK-OV-3
  GI50: 33 µM (inactive)
DLD-1
  GI50: 18.6 µM (inactive)
M19-MEL
  GI50: 12.3 µM (inactive)
IGROV-1
  GI50: 18.1 µM (inactive)
M14
  GI50: 14.4 µM (inactive)
SR
  GI50: 18.3 µM (inactive)
SF-295
  GI50: 18.8 µM (inactive)
OVCAR-4
  GI50: 14.8 µM (inactive)
SNB-75
  GI50: 25.8 µM (inactive)
SK-MEL-2
  GI50: 29.3 µM (inactive)
Malme-3M
  GI50: 15.1 µM (inactive)
A498
  GI50: 34.3 µM (inactive)
NCI-H23
  GI50: 20 µM (inactive)
NCI-H460
  GI50: 28.1 µM (inactive)
KM-20L2
  GI50: 21 µM (inactive)
TK-10
  GI50: 20.4 µM (inactive)
OVCAR-3
  GI50: 10.6 µM (inactive)
UACC-257
  GI50: 18.1 µM (inactive)
HCT-116
  GI50: 17.8 µM (inactive)
SNB-78
  GI50: 36.1 µM (inactive)
EKVX
  GI50: 19.8 µM (inactive)
NCI-H226
  GI50: 11.9 µM (inactive)
UACC-62
  GI50: 16.8 µM (inactive)
HOP-18
  GI50: 32.6 µM (inactive)
KM12
  GI50: 18.1 µM (inactive)
CAKI-1
  GI50: 13.7 µM (inactive)
A549
  GI50: 16.7 µM (inactive)
U-251
  GI50: 17.4 µM (inactive)
HOP-62
  GI50: 25.6 µM (inactive)
LXFL 529
  GI50: 16.6 µM (inactive)
K562
  GI50: 10.4 µM (inactive)
MOLT-4
  GI50: 25.3 µM (inactive)
UO-31
  GI50: 16 µM (inactive)
SF-268
  GI50: 19.8 µM (inactive)
HT-29
  GI50: 21.5 µM (inactive)
DMS-114
  GI50: 18.2 µM (inactive)
HL-60
  GI50: 12.9 µM (inactive)
SF-539
  GI50: 18.5 µM (inactive)
786-0
  GI50: 14.9 µM (inactive)
SN12C
  GI50: 15.8 µM (inactive)
CCRF-CEM
  GI50: 11.1 µM (inactive)
XF498
  GI50: 3.16 µM (inactive)
HCC 2998
  GI50: 19.1 µM (inactive)
SNB-19
  GI50: 18.5 µM (inactive)
ACHN
  GI50: 17.3 µM (inactive)
OVCAR-5
  GI50: 20.1 µM (inactive)
COLO 205
  GI50: 19.8 µM (inactive)
RPMI-8226
  GI50: 18.2 µM (inactive)

## CC/C(C)=C1\CCC(CN2CCOCC2)C1=O (stereo not drawn)
SK-MEL-5
  GI50: 28.5 µM (inactive)
SW-620
  GI50: 15.1 µM (inactive)
RXF 393
  GI50: 6.78 µM (inactive)
DMS-273
  GI50: 18.1 µM (inactive)
OVCAR-8
  GI50: 20.7 µM (inactive)
HCT-15
  GI50: 13.4 µM
LOX IMVI
  GI50: 16.4 µM (inactive)
DLD-1
  GI50: 11.9 µM (inactive)
M19-MEL
  GI50: 14.9 µM (inactive)
IGROV-1
  GI50: 20.4 µM (inactive)
M14
  GI50: 17.3 µM (inactive)
SR
  GI50: 11.2 µM (inactive)
SF-295
  GI50: > 100 µM (inactive)
OVCAR-4
  GI50: 17.6 µM (inactive)
SNB-75
  GI50: 25.2 µM (inactive)
SK-MEL-2
  GI50: 17.8 µM (inactive)
Malme-3M
  GI50: 17.7 µM (inactive)
A498
  GI50: 21.2 µM (inactive)
SK-MEL-28
  GI50: 17.4 µM (inactive)
NCI-H23
  GI50: 13.8 µM (inactive)
NCI-H460
  GI50: 17.8 µM (inactive)
KM-20L2
  GI50: 19.2 µM (inactive)
TK-10
  GI50: 14.5 µM (inactive)
OVCAR-3
  GI50: 15 µM (inactive)
UACC-257
  GI50: 17.3 µM (inactive)
HCT-116
  GI50: 13.9 µM (inactive)
SNB-78
  GI50: 21.8 µM (inactive)
EKVX
  GI50: 18.7 µM (inactive)
NCI-H226
  GI50: 82.2 µM (inactive)
UACC-62
  GI50: 17.6 µM (inactive)
HOP-18
  GI50: 19 µM (inactive)
KM12
  GI50: 24.3 µM (inactive)
CAKI-1
  GI50: 2.47 µM (inactive)
A549
  GI50: 21.2 µM (inactive)
HOP-62
  GI50: 23.1 µM (inactive)
LXFL 529
  GI50: 11.2 µM (inactive)
K562
  GI50: 7.46 µM (inactive)
MOLT-4
  GI50: 22.5 µM (inactive)
UO-31
  GI50: 21.6 µM (inactive)
SF-268
  GI50: 11.5 µM (inactive)
HT-29
  GI50: 15.6 µM (inactive)
DMS-114
  GI50: 5.26 µM (inactive)
HL-60
  GI50: 15.1 µM (inactive)
SF-539
  GI50: 20.2 µM (inactive)
786-0
  GI50: 10.1 µM (inactive)
SN12C
  GI50: 8.69 µM (inactive)
CCRF-CEM
  GI50: 7.91 µM (inactive)
XF498
  GI50: 19.1 µM (inactive)
HCC 2998
  GI50: 24.2 µM (inactive)
SNB-19
  GI50: 47.9 µM (inactive)
HOP-92
  GI50: 14.6 µM (inactive)
ACHN
  GI50: 7.18 µM (inactive)
OVCAR-5
  GI50: 17.5 µM (inactive)
RPMI-8226
  GI50: 2.21 µM (inactive)
